Experimental data reported in patent US7947827B2 (priority 2006, dated 2011).
Like-named read-outs stand apart in the source and are kept apart here.

Key:
[1] = in vivo; cited from earlier work
[2] = rat, in vivo; cited from earlier work
[3] = rat, in vivo; cited from earlier work; remark: listed apart in the source
[4] = guinea pig, in vivo; cited from earlier work
[5] = rat, in vivo; cited from earlier work; remark: listed apart in the source
[6] = rat, in vivo; cited from earlier work; remark: listed apart in the source
[7] = mouse, in vivo, cited from earlier work
[8] = tested on: bone marrow cells of mice; conditions: mouse, in vivo; cited from earlier work
[9] = tested on: NQO activity in cultured murine hepatoma cells; conditions: cited from earlier work
[10] = mouse, in vivo, po, 2500 mg/kg; cited from earlier work
[11] = parameters: species or system humans; conditions: in vivo
[12] = rat, in vivo; cited from earlier work; remark: listed apart in the source
[13] = in vivo, po; cited from earlier work
[14] = rhesus monkey, in vivo, iv
[15] = rhesus monkey, in vivo, iv; cited from earlier work
[16] = parameters: species or system sheep; conditions: in vivo
[17] = tested on: azoxymethane- and IQ-induced aberrant crypt foci; conditions: in vivo; cited from earlier work
[18] = dog, in vivo, cited from earlier work
[19] = pig, in vivo, cited from earlier work
[20] = rat, in vivo, cited from earlier work
[21] = rabbit, in vivo, cited from earlier work
[22] = in vivo, ip; cited from earlier work

What does the source list for “potassium sodium chlorophyllin copper complex [sodium potassium chlorophyllin]”?
scurvy [1]: no evidence of scurvy; adverse effects [2]: without any adverse effects except weight loss related to food refusal; effects in offspring [3]: locomotory difficulties and skeletal muscle defects; ill effects or pathological change [4]: without ill effects or pathological change; copper storage in liver, kidney or spleen [5]: No copper storage occurred; Cu toxicity or deposition in liver, kidney or spleen [6]: no evidence of Cu toxicity or deposition; gross or histopathological changes [6]: No gross or histopathological changes; LD50 ([7]; po): 7000 mg/kg

For sodium copper chlorophyllin, which “reducing clastogenicity from cesium chloride, mercuric chloride and cobalt chloride” value [8] is on record?
Its value is “demonstrated efficacy”.

What about the “concentration required to double NQO activity (CD)” value [9] of the same molecule?
The value was 30 µM.

What about the “potency as NQO inducer relative to Chl” value [9] of the same molecule?
Its value is roughly 10 times.

What about the ill effects [10] of the same molecule?
Its ill effects is “without any ill effects”.

With `COc1cc2c(c3oc(=O)c4c(c13)CCC4=O)[C@@H]1C=CO[C@@H]1O2` [AFB1, aflatoxin B1] as the molecule, how does the “terminal half-life, conservative estimate” value [11] read?
The value was “less than 24 hours”.

What about the “time to complete absorption” value [11] of the same molecule?
The value was 0.5 to 1.0 h.

What about the “absorption rate constant (ka)” value [12] of the same molecule?
Its value is 5.84 ± 0.05 h⁻¹.

What about the “total dose excreted in first 48 hours” value [13] of the same molecule?
The value was “approximately 90%”.

What about the “terminal half-life (t1/2β) from all routes of excretion” value [14] of the same molecule?
Its value is “approximately 24 hours”.

And the “dose eliminated in urine as chloroform extractable, first 24 hours” value [15]?
Its value is roughly 10%.

And the “dose eliminated in urine as unbound, first 24 hours” value [15]?
The value was roughly 30%.

And the “dose eliminated in urine within first 24 hours” value [15]?
The value was 40%.

What about the “dose remaining in the liver at 100 hours” value [15] of the same molecule?
The value was 13.6%.

And the “dose remaining in the plasma at 100 hours” value [15]?
The value was 5.8%.

What about the “fecal excretion of dose, 24 to 48 hours” value [15] of the same molecule?
The value was 20%.

And the “fecal excretion of dose, 48 to 72 hours” value [15]?
The value was roughly 6%.

What about the “fecal excretion of dose, 72 to 100 hours” value [15] of the same molecule?
Its value is roughly 3%.

And the “fecal excretion of dose, first 24 hours” value [15]?
Its value is roughly 4%.

What about the “total excreta after 100 hours, of administered dose” value [15] of the same molecule?
The value was 73.1%.

And the t1/2 [16]?
Its t1/2 is “approximately 24 hours”.

Which “concentration required to double NQO activity (CD)” value [9] does the source give for chlorin e4 ethyl ester here?
The value was 20 µM.

And the “potency as NQO inducer relative to Chl” value [9]?
Its value is 50 times.

For chlorophyll, which “azoxymethane- and IQ-induced aberrant crypt foci” value [17] is on record?
The value was “inhibited”.

Which LD50 ([18]; im) does the source give for Sodium chlorophyllin copper complex here?
Its LD50 is greater than 50 mg/kg.

What about the LD50 ([18]; ip) of the same molecule?
Its LD50 is greater than 200 mg/kg.

What about the LD50 ([18]; iv) of the same molecule?
Its LD50 is greater than 200 mg/kg.

What about the LD50 ([19]; im) of the same molecule?
The LD50 was greater than 20 mg/kg.

What about the LD50 ([19]; iv) of the same molecule?
The LD50 was greater than 10 mg/kg.

And the LD50 ([20]; im)?
The LD50 was greater than 250 mg/kg.

And the LD50 ([20]; ip)?
Its LD50 is greater than 1000 mg/kg.

What about the LD50 ([20]; iv) of the same molecule?
The LD50 was greater than 250 mg/kg.

And the LD50 ([21]; im)?
Its LD50 is greater than 60 mg/kg.

And the LD50 ([21]; ip)?
Its LD50 is greater than 500 mg/kg.

What about the LD50 ([21]; iv) of the same molecule?
Its LD50 is greater than 200 mg/kg.

And the LD50 [22]?
The LD50 was greater than 60 mg/kg.

And the LD50 ([7]; im)?
The LD50 was greater than 500 mg/kg.

And the LD50 ([7]; ip)?
Its LD50 is greater than 1000 mg/kg.

And the LD50 ([7]; iv)?
The LD50 was greater than 400 mg/kg.
